From the supplement of paper PMC10307832

What was measured:
Test in all cases: relative viability (nuclei count vs DMSO), 5 days (fraction); higher = more cells survive
CX-5461 + Navitoclax = compound: Cc1cnc(CNC(=O)c2c(=O)c3ccc(N4CCCN(C)CC4)nc3n3c2sc2ccccc23)cn1 [CX-5461] + CC1(C)CCC(c2ccc(Cl)cc2)=C(CN2CCN(c3ccc(C(=O)NS(=O)(=O)c4ccc(N[C@H](CCN5CCOCC5)CSc5ccccc5)c(S(=O)(=O)C(F)(F)F)c4)cc3)CC2)C1 [Navitoclax] (partner 0.5 µM)
In short: (§1)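 Relative viability was taken as the ratio of nuclei in treated wells to nuclei in vehicle wells. Lung cancer cell lines in 1536-well plates received compounds by pin tool one day after seeding, either one drug alone or a fixed anchor-drug dose plus five library-drug doses (not always all listed) in √10 steps. Nuclei were counted on 4× images after 5 days of treatment, and values are medians of duplicate plates.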

CX-5461 + Foretinib = compound: Cc1cnc(CNC(=O)c2c(=O)c3ccc(N4CCCN(C)CC4)nc3n3c2sc2ccccc23)cn1 [CX-5461] + COc1cc2c(Oc3ccc(NC(=O)C4(C(=O)Nc5ccc(F)cc5)CC4)cc3F)ccnc2cc1OCCCN1CCOCC1 [Foretinib] (partner 0.25 µM)
In short: as §1

IMD-0354 = compound: O=C(Nc1cc(C(F)(F)F)cc(C(F)(F)F)c1)c1cc(Cl)ccc1O [IMD-0354]
In short: (§2)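 In 1536-well plates, lung cancer cell lines rested overnight at 37 °C before five library-drug doses (not always all listed), √10 apart, were pinned onto vehicle-anchored plates. Nuclei were counted with MetaXpress from 4× Hoechst images taken after 5 days without medium change. Viability compares treated-well with vehicle-well nuclei as a median over plates, and plates needed control CV below 25% plus at least one doubling to pass.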

CX-5461 = compound: Cc1cnc(CNC(=O)c2c(=O)c3ccc(N4CCCN(C)CC4)nc3n3c2sc2ccccc23)cn1 [CX-5461]
In short: as §2

Cell Line | relative viability (CX-5461 + Navitoclax; first compound 0.01 µM) | relative viability (CX-5461 + Navitoclax; first compound 0.03162 µM) | relative viability (CX-5461 + Navitoclax; first compound 0.1 µM) | relative viability (CX-5461 + Navitoclax; first compound 0.3162 µM) | relative viability (CX-5461 + Navitoclax; first compound 1 µM) | relative viability (CX-5461 + Foretinib; first compound 0.01 µM) | relative viability (CX-5461 + Foretinib; first compound 0.03162 µM) | relative viability (CX-5461 + Foretinib; first compound 0.1 µM) | relative viability (CX-5461 + Foretinib; first compound 0.3162 µM) | relative viability (CX-5461 + Foretinib; first compound 1 µM) | relative viability (IMD-0354; 0.04 µM) | relative viability (IMD-0354; 0.1265 µM) | relative viability (IMD-0354; 0.4 µM) | relative viability (IMD-0354; 1.265 µM) | relative viability (IMD-0354; 4 µM) | relative viability (CX-5461; 0.01 µM) | relative viability (CX-5461; 0.03162 µM) | relative viability (CX-5461; 0.1 µM) | relative viability (CX-5461; 0.3162 µM) | relative viability (CX-5461; 1 µM)
SK-MES-1 | 1.19 | 1.28 | 1.28 | 1.38 | 1.14 | 1.05 | 1.05 | 1.04 | 1.08 | 0.838 | 1.16 | 0.996 | 0.645 | 0.463 | 0.223 | 1.1 | 1.09 | 1.04 | 1.06 | 0.724
NCI-H2170 | 0.627 | 0.585 | 0.698 | 0.532 | 0.665 | 0.964 | 1.01 | 0.944 | 1.07 | 1 | 0.956 | 1.02 | 0.777 | 0.806 | 0.226 | 1.03 | 1.02 | 1.08 | 1 | 1.02
EPLC-272H | 1.28 | 1.3 | 1.11 | – | 1.13 | 0.651 | 0.681 | 0.78 | – | 0.467 | 1.21 | 1.08 | 0.717 | 0.442 | 0.16 | 0.994 | 0.886 | 0.901 | – | 0.922
EBC-1 | 0.391 | 0.374 | 0.437 | 0.416 | 0.197 | 0.108 | 0.085 | 0.11 | 0.112 | 0.0969 | 0.914 | 0.971 | 0.585 | 0.304 | 0.205 | 1.01 | 1.05 | 1.08 | 0.907 | 0.782
NCI-H1915 | 0.799 | 0.784 | 0.809 | 0.743 | 0.758 | 1.14 | 1.07 | 1.09 | 1.08 | 1.05 | 0.824 | 1.02 | 0.675 | 0.316 | 0.165 | 1.06 | 1.13 | 0.996 | 0.79 | 0.899
NCI-H596 | 0.928 | 1.01 | 1.18 | 0.98 | 1.02 | 0.896 | 1.18 | 0.888 | 1.03 | 0.97 | 0.989 | 1.16 | 0.799 | 0.834 | 0.426 | 0.989 | 1.15 | 0.968 | 1.09 | 0.683
NCI-H322M | 1.34 | 1.31 | 1.12 | – | 1.17 | 0.834 | 0.995 | 0.937 | 0.394 | 0.7 | 0.992 | 1.09 | 0.805 | 0.406 | 0.331 | 0.923 | 0.987 | 1.03 | 0.491 | 0.731
NCI-H1299 | 1.1 | 1.06 | 1.04 | 1.04 | 1.05 | 1.06 | 1.06 | 1.09 | 1.06 | 1.11 | 0.85 | 1.02 | 0.638 | 0.221 | 0.179 | 0.998 | 0.99 | 1.02 | 1.01 | 0.944
NCI-H2228 | 0.822 | 0.572 | 0.513 | 0.552 | 0.0937 | 0.691 | 1.03 | 0.763 | 0.747 | 0.13 | 1.07 | 0.888 | 0.721 | 0.266 | 0.294 | 1.03 | 1.01 | 0.948 | 0.855 | 0.205
IA-LM | 0.941 | 0.993 | 0.724 | 0.769 | 0.272 | 1.21 | 1.12 | 1.14 | 1.07 | 0.885 | 0.791 | 0.875 | 0.529 | 0.389 | 0.128 | 0.987 | 0.933 | 1 | 1.03 | 0.561
NCI-H647 | 1.26 | 1.27 | 1.19 | 0.709 | 0.7 | 1.21 | 1.25 | 1.26 | 1.05 | 1 | 1.04 | 1.06 | 0.405 | 0.172 | 0.11 | 1.08 | 0.935 | 0.991 | 0.822 | 0.403
LK-2 | – | 0.984 | 0.939 | 0.319 | 0.904 | 1.17 | 0.942 | 1.26 | – | 1.24 | 1.19 | 0.986 | – | 1 | 0.271 | 0.89 | 1.07 | 1.13 | – | 0.783
NCI-H2085 | 1.21 | 1.16 | 1.02 | 1.16 | 1.11 | 0.961 | 1.07 | 0.92 | 0.864 | 0.826 | 1.06 | 0.975 | 0.775 | 0.449 | 0.415 | 1.07 | 1.01 | 0.992 | 1.02 | 0.869
NCI-H727 | 0.493 | 0.365 | 0.464 | 0.354 | 0.31 | 0.96 | 1.14 | 0.949 | 0.722 | 0.837 | 0.838 | 0.908 | 0.732 | 0.494 | 0.509 | 1.07 | 1.03 | 1.03 | 0.875 | 0.78
NCI-H441 | 0.514 | 0.821 | 0.57 | 0.703 | 0.583 | 0.88 | 1.02 | 0.615 | 0.889 | 0.778 | 1.13 | 0.966 | 0.521 | 0.227 | 0.243 | 1.08 | 1.17 | 0.947 | 0.888 | 0.689
